Measurements published in US20100324142A1, “HYDROCORTISONE DERIVATIVES AND USE THEREOF FOR THERAPEUTIC OR COSMETIC INDICATIONS” (priority 2007, published 2010).

System: physiopathological hair loss of unknown cause (patients suffering from alopecia)
Assay: Double blind clinical trial on two hundred patients suffering from alopecia
Assay type: in vivo, human
Description: Clinical Trial (Double Blind) on Two Hundred Patients Suffering from Alopecia
The action of the compound according to the invention, produced as described in Example 1, was assessed on a sample population of two hundred people, half of whom were of the female sex. All the persons included in the sample had been affected for at least four months by physiopathological hair loss of unknown cause.
A double blind trial was set up, in which one hundred patients were administered with a solution containing the compound according to the invention in bidistilled water and one hundred received a placebo solution. The solution according to the invention contained as excipients: sodium hydroxide, benzyl benzoate and benzalkonium chloride.

SMILES: CC1(CCC(=O)O)C(=O)CCC2C1C(O)CC1(C)C2CCC1(O)C(=O)CO (stereo not drawn) [compound according to the invention, 3-[3,5-dihydroxy-3-(2-hydroxy-acetyl)-3a,6-dimethyl-7-oxo-dodecahydro-cyclo-penta[α]naphtalen-6-yl]-propionic acid]
- patients with good hair regrowth observed (at the end of the trial, solution of the compound in bidistilled water, one hundred treated patients): 38%
- adverse side effects (even after many months of treatment): total absence of adverse side effects
- subjects in whom hair loss was arrested (within the first week of treatment, solution of the compound in bidistilled water, one hundred treated patients, double blind vs placebo): 94%
